Experiment [1] deals with T1, GLIC (Gloeobacter violaceus ligand-gated ion channel) (Gloeobacter violaceus, UniProt Q7NDN8).
T1 sequence (Q7NDN8 44-359): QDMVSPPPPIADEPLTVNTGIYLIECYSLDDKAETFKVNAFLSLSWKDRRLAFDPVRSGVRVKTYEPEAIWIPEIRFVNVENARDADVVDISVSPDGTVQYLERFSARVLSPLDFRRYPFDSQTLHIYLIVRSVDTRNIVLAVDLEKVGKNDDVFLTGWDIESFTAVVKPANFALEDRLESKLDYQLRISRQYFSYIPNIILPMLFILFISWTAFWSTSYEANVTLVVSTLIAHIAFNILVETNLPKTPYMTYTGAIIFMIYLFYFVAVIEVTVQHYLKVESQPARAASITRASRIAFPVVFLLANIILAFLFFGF
The experiment can be described thus: [3H]AziPm photoaffinity labeling of purified GLIC at pH […] with Edman sequencing. Format: cell-based.

For experiment [2], the target named is T1, GLIC (Gloeobacter violaceus ligand-gated ion channel). The experiment can be described thus: competition. The experiment is classed as cell-based.

Take `CC(C)c1ccc(C2(C(F)(F)F)N=N2)cc1O` [AziPm, 2-isopropyl-5-[3-(trifluoromethyl)-3H-diazirin-3-yl]phenol]: the IC50 in experiment [1] was 51.4 ± 5.3 µM.

The molecule `CC(C)c1cccc(C(C)C)c1O` [PPF, Propofol] had an IC50 in experiment [2] of 21.4 ± 1.2 µM.

Broadly, the IC50 is the concentration that gives 50% inhibition.

The record behind these values is PMC3935609 (Biochemistry, 2013).
